One data set in a line: in vitro. The settings on record: chlorocebus sabaeus, Vero cells.
The next data set deals with Chikungunya virus. As to the kind of experiment: microbe, parasite or virus in culture.

A word on the CC50: it is the concentration at which the toxic effect on the cells reaches its halfway point. Low values mean greater toxicity to the cells, high ones lower toxicity to the cells. Usually EC50 stands for the concentration that produces a half-maximal response. By EC90 is commonly meant the point of the concentration-response curve where the effect stands at 90%. A lower EC90 goes with greater potency. `CCNc1nc(C)cc(N2CCN(C(=O)c3ccc(Cl)cc3)CC2)n1`: the midpoint of cytotoxicity in the data set “in vitro”, the CC50 at 120 h, lay at 202 µM. In the data set on Chikungunya virus, the response was half-maximal at 32 µM (EC50) and it took 108 µM to reach the 90% level (EC90).

The values are drawn from ChEMBL document CHEMBL4613309, “Identification of 2-(4-(Phenylsulfonyl)piperazine-1-yl)pyrimidine Analogues as Novel Inhibitors of Chikungunya Virus” (ACS Med Chem Lett, 2020).
